Test results: ChEMBL document CHEMBL5584201, “Amphiphilic tribasic galactosamines potentiate rifampicin in Gram-negative bacteria at low Mg++/Ca++concentrations” (Bioorg Med Chem Lett, 2024)

System: Pseudomonas aeruginosa
Assay: Potentiation of rifampicin-induced antibacterial activity against Pseudomonas aeruginosa PAO1 assessed as fold change in rifampicin MIC in low salt containing media by Mueller-Hinton broth based assay
Type: functional

Compound | fold change (FC)
CCCCCCCCO[C@@H]1O[C@H](CN)[C@H](N)[C@H](OCc2ccccc2)[C@H]1N | 1
NC[C@H]1O[C@@H](OCCCc2ccccc2)[C@H](N)[C@@H](OCc2ccc3ccccc3c2)[C@H]1N | 2

System: Acinetobacter baumannii
Assay: Potentiation of rifampicin-induced antibacterial activity against Acinetobacter baumannii ATCC 17978 assessed as fold change in rifampicin MIC in low salt containing media by Mueller-Hinton broth based assay
Type: functional

Compound | fold change (FC)
CCCCCCCCO[C@@H]1O[C@H](CN)[C@H](N)[C@H](OCc2ccccc2)[C@H]1N | 16
NC[C@H]1O[C@@H](OCCCc2ccccc2)[C@H](N)[C@@H](OCc2ccc3ccccc3c2)[C@H]1N | 32

System: Pseudomonas aeruginosa
Assay: Antibacterial activity against Pseudomonas aeruginosa PAO1 in low salt containing media by Mueller-Hinton broth based assay
Type: functional

Compound | MIC
CCCCCCCCO[C@@H]1O[C@H](CN)[C@H](N)[C@H](OCc2ccccc2)[C@H]1N | > 128 µg/mL
NC[C@H]1O[C@@H](OCCCc2ccccc2)[C@H](N)[C@@H](OCc2ccc3ccccc3c2)[C@H]1N | > 128 µg/mL

System: Escherichia coli
Assay: Potentiation of rifampicin-induced antibacterial activity against Escherichia coli ATCC 25922 assessed as rifampicin MIC in low salt containing media by Mueller-Hinton broth based assay
Type: functional

Compound | MIC
CCCCCCCCO[C@@H]1O[C@H](CN)[C@H](N)[C@H](OCc2ccccc2)[C@H]1N | 16 µg/mL
NC[C@H]1O[C@@H](OCCCc2ccccc2)[C@H](N)[C@@H](OCc2ccc3ccccc3c2)[C@H]1N | 16 µg/mL

System: Escherichia coli
Assay: Potentiation of rifampicin-induced antibacterial activity against Escherichia coli ATCC 25922 assessed as fold change in rifampicin MIC in low salt containing media by Mueller-Hinton broth based assay
Type: functional

Compound | fold change (FC)
CCCCCCCCO[C@@H]1O[C@H](CN)[C@H](N)[C@H](OCc2ccccc2)[C@H]1N | 16
NC[C@H]1O[C@@H](OCCCc2ccccc2)[C@H](N)[C@@H](OCc2ccc3ccccc3c2)[C@H]1N | 32

System: Acinetobacter baumannii
Assay: Antibacterial activity against Acinetobacter baumannii ATCC 17978 in low salt containing media by Mueller-Hinton broth based assay
Type: functional

Compound | MIC
CCCCCCCCO[C@@H]1O[C@H](CN)[C@H](N)[C@H](OCc2ccccc2)[C@H]1N | > 128 µg/mL
NC[C@H]1O[C@@H](OCCCc2ccccc2)[C@H](N)[C@@H](OCc2ccc3ccccc3c2)[C@H]1N | 128 µg/mL

System: Escherichia coli
Assay: Antibacterial activity against Escherichia coli ATCC 25922 in low salt containing media by Mueller-Hinton broth based assay
Type: functional

Compound | MIC
CCCCCCCCO[C@@H]1O[C@H](CN)[C@H](N)[C@H](OCc2ccccc2)[C@H]1N | 64 µg/mL
NC[C@H]1O[C@@H](OCCCc2ccccc2)[C@H](N)[C@@H](OCc2ccc3ccccc3c2)[C@H]1N | 64 µg/mL

System: Acinetobacter baumannii
Assay: Potentiation of rifampicin-induced antibacterial activity against Acinetobacter baumannii ATCC 17978 assessed as rifampicin MIC in low salt containing media by Mueller-Hinton broth based assay
Type: functional

Compound | MIC
CCCCCCCCO[C@@H]1O[C@H](CN)[C@H](N)[C@H](OCc2ccccc2)[C@H]1N | 16 µg/mL
NC[C@H]1O[C@@H](OCCCc2ccccc2)[C@H](N)[C@@H](OCc2ccc3ccccc3c2)[C@H]1N | 16 µg/mL

System: Pseudomonas aeruginosa
Assay: Potentiation of rifampicin-induced antibacterial activity against Pseudomonas aeruginosa PAO1 assessed as rifampicin MIC in low salt containing media by Mueller-Hinton broth based assay
Type: functional

Compound | MIC
CCCCCCCCO[C@@H]1O[C@H](CN)[C@H](N)[C@H](OCc2ccccc2)[C@H]1N | 16 µg/mL
NC[C@H]1O[C@@H](OCCCc2ccccc2)[C@H](N)[C@@H](OCc2ccc3ccccc3c2)[C@H]1N | 16 µg/mL
